Experiments:
BRD4-BD12 (1-477) = BRD4-BD12 (1-477) (Homo sapiens (Human), UniProt O60885); experiment: Alphascreen binding assay BRD4-BD12; conditions: BRD4(1 2) H4; read-out: Biochemical activity (IC50 μM) BRD4(1 2) H4
Outline: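 First, compound was preincubated 1 h at room temperature with the His-tagged BRD4 protein (BD1 44-164 or tandem BD12 1-477) and acetylated H4 peptide. Next, donor and acceptor beads were added at 7.5 μg/ml final. After 30 min, AlphaScreen emission was recorded.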

MV-4-11 cells = experiment: Oncology cell growth assay MV-4-11 (CellTiter Glo); type: cell-based; conditions: Homo sapiens, MV4-11, 72 h; MV-4-11, 3d growth; read-out: Cell activity (IC50 μM) MV-4-11 3d-Growth
Outline: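 MV-4-11 AML cells (MLL-AF4), 3000 per well, exposed to 8-point 1:3 compound titration from 10 μM top concentration (0.2% DMSO) for 72 h. Viability by CellTiter Glo luminescence, normalized to DMSO controls; pIC50 from four-parameter curve fit.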

Row | SMILES | IC50 (BRD4-BD12 (1-477)) [µM] | IC50 (MV-4-11 cells) [µM]
1 | COc1ccc(-c2cn([C@@H](C)c3ccccn3)c3cc(-c4c(C)noc4C)cnc23)cn1 [P-0975, 4-[3-(6-methoxy-3-pyridyl)-1-[(1S)-1-(2-pyridyl)ethyl]pyrrolo[3,2-b]pyridin-6-yl]-3,5-dimethyl-isoxazole] | < 1 | < 1
2 | Cc1noc(C)c1-c1cnc2c(I)cn(C(c3ccccc3)c3ccccn3)c2c1 (centres unmarked) [P-0906, 4-[3-iodo-1-[phenyl(2-pyridyl)methyl]pyrrolo[3,2-b]pyridin-6-yl]-3,5-dimethyl-isoxazole] | < 1 | < 1
3 | Cc1noc(C)c1-c1cnc2c(C#N)cn(C(c3ccccc3)c3ccccn3)c2c1 (centres unmarked) [P-0940, 6-(3,5-dimethylisoxazol-4-yl)-1-[phenyl(2-pyridyl)methyl]pyrrolo[3,2-b]pyridine-3-carbonitrile] | < 1 | < 1
4 | Cc1noc(C)c1-c1cnc2c(I)cn(Cc3ncccc3F)c2c1 [P-0947, 4-[1-[(3-fluoro-2-pyridyl)methyl]-3-iodo-pyrrolo[3,2-b]pyridin-6-yl]-3,5-dimethyl-isoxazole] | < 1 | < 1
5 | Cc1noc(C)c1-c1cnc2c(I)cn(C(c3ccccn3)C3CCOCC3)c2c1 (centres unmarked) [P-1034, 4-[3-iodo-1-[2-pyridyl(tetrahydropyran-4-yl)methyl]pyrrolo[3,2-b]pyridin-6-yl]-3,5-dimethyl-isoxazole] | < 1 | < 1
6 | COC(=O)C1(c2ccc(-c3cn([C@@H](C)c4ccccn4)c4cc(-c5c(C)noc5C)cnc34)cc2)CC1 [P-0942, methyl 1-[4-[6-(3,5-dimethylisoxazol-4-yl)-1-[(1S)-1-(2-pyridyl)ethyl]pyrrolo[3,2-b]pyridin-3-yl]phenyl]cyclopropanecarboxylate] | < 1 | < 1
7 | Cc1noc(C)c1-c1ccc2c(-c3ccc(C(=O)O)c(Cl)c3)cn(C(c3ccccc3)c3ccccn3)c2c1 (centres unmarked) [P-1047, 2-chloro-4-[6-(3,5-dimethylisoxazol-4-yl)-1-[phenyl(2-pyridyl)methyl]indol-3-yl]benzoic acid] | < 1 | < 1
8 | CC[C@H](c1ccccn1)n1cc(-c2ccc(C(=O)OC)cc2)c2ncc(-c3c(C)noc3C)cc21 [P-0959, methyl 4-[6-(3,5-dimethylisoxazol-4-yl)-1-[(1R)-1-(2-pyridyl)propyl]pyrrolo[3,2-b]pyridin-3-yl]benzoate] | < 1 | < 1
9 | Cc1cc(-c2cn(C(c3ccccc3)c3ccccn3)c3cc(-c4c(C)noc4C)ccc23)ccc1C(=O)O (centres unmarked) [P-1045, 4-[6-(3,5-dimethylisoxazol-4-yl)-1-[phenyl(2-pyridyl)methyl]indol-3-yl]-2-methyl-benzoic acid] | < 1 | < 1
10 | CC[C@@H](c1ccccn1)n1cc(-c2ccc(C3(C(=O)OC)CC3)cc2)c2ncc(-c3c(C)noc3C)cc21 [P-0968, methyl 1-[4-[6-(3,5-dimethylisoxazol-4-yl)-1-[(1S)-1-(2-pyridyl)propyl]pyrrolo[3,2-b]pyridin-3-yl]phenyl]cyclopropanecarboxylate] | < 1 | < 1
11 | COC(=O)Cc1ccc(-c2cn(C(c3ccccc3)c3ccccn3)c3cc(-c4c(C)noc4C)cnc23)cc1 (centres unmarked) [P-0902, methyl 2-[4-[6-(3,5-dimethylisoxazol-4-yl)-1-[phenyl(2-pyridyl)methyl]pyrrolo[3,2-b]pyridin-3-yl]phenyl]acetate] | < 1 | < 1
12 | CC[C@@H](c1ccccn1)n1cc(I)c2ncc(-c3c(C)noc3C)cc21 [P-0963, 4-[3-iodo-1-[(1S)-1-(2-pyridyl)propyl]pyrrolo[3,2-b]pyridin-6-yl]-3,5-dimethyl-isoxazole] | < 1 | < 1
13 | Cc1noc(C)c1-c1cnc2c(-c3ccc(C4(C(=O)O)CC4)cc3)cn(Cc3ccccn3)c2c1 [P-0964, 1-[4-[6-(3,5-dimethylisoxazol-4-yl)-1-(2-pyridylmethyl)pyrrolo[3,2-b]pyridin-3-yl]phenyl]cyclopropanecarboxylic acid] | < 1 | < 1

— patent US10519177B2, “Heterocyclic compounds and uses thereof” (Plexxikon Inc., priority 2013, dated 2019)
